Laboratory results as given in patent US11976062B2, “Benzisoxazole compound” (OSAKA UNIVERSITY, priority 2018, dated 2024).

Assays:
TRPC6 channel = target: T1, TRPC6 channel (Homo sapiens, UniProt Q9Y210); experiment: Electrophysiological evaluation (whole-cell patch) using HEK293 cells transiently expressing TRPC6 channel; type: cell-based; conditions: 30 μM for 30 seconds, carbachol 100 μM, holding potential −50 mV
T1 construct: expressed in transfected cells; host or cells: HEK293
T1 sequence (Q9Y210 1-931): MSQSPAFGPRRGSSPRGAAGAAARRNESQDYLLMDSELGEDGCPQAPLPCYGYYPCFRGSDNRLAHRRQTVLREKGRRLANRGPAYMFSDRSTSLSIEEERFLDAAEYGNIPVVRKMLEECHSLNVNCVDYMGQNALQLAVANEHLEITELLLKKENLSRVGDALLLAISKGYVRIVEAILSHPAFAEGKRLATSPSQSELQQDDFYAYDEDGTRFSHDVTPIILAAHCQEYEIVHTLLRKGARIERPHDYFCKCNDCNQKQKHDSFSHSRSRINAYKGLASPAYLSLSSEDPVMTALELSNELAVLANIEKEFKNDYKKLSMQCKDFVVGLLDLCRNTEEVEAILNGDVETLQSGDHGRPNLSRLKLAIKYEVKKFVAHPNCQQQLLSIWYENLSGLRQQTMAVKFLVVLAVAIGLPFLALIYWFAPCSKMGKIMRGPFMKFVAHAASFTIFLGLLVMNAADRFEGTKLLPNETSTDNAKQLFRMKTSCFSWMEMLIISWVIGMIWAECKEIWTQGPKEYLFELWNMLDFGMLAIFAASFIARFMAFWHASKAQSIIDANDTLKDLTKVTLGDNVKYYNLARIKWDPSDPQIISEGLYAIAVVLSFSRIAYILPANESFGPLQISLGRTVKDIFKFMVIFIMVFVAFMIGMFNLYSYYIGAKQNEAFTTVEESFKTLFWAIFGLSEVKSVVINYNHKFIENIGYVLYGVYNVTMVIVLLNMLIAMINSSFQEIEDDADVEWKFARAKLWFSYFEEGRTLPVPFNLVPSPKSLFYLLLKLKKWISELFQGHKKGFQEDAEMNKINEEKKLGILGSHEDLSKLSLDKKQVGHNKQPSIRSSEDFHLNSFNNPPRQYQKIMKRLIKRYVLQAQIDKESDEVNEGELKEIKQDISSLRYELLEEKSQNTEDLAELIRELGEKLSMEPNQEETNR
Protocol: Evaluation was performed using TRPC6-expressing cells cultured in the same manner as in Test Example 1. The transfected cells were placed in a chamber set in a microscope, and TRPC6 current was measured with a patch glass electrode (5 to 10 MΩ) in whole-cell mode. The extracellular solution and intracellular solution used in this evaluation are listed below.
Extracellular Solution: 140 mM NaCl, 5 mM KCl, 1 mM CaCl2, 1.2 mM MgCl2, 10 mM Glucose, 10 mM HEPES (pH 7.4)
Intracellular Solution: 120 mM CsOH, 120 mM Aspartate, 20 mM CsCl, 2 mM MgCl2, 1.5 mM CaCl2, 5 mM EGTA, 10 mM Glucose, 10 mM HEPES, 2 mM ATP-Na, 0.1 mM GTP (pH 7.4)
The holding potential was fixed at −50 mV. TRPC current was evoked by adding carbachol (100 μM) to the cells. Evaluation was performed on the change in current caused by adding 30 μM of a test compound (compound 011) to the cells for 30 seconds after 20 seconds from the addition of carbachol.

[1] = system: α-SMA expression induced by TGFβ2 in cardiac fibroblasts; experiment: Fibrosis inhibition evaluation 2: immunofluorescent staining of α-SMA in cardiac fibroblasts; type: cell-based, rats; conditions: 10 μM, TGFβ2 2 ng/ml, 48 hours, FIG. 8
Protocol: (§1) In the same manner as in Test Example 5, dermal fibroblasts were isolated from mice, and sterilized cover glass (diameter: 12 mm) was placed in a 12-well plate. On the cover glass, 2.5×10^5 cells were seeded and grown. After 24 hours, the medium was replaced with a medium free of fetal bovine serum, and the cells were cultured for another 24 hours. Separately, cardiac fibroblasts were isolated from 1 to 2-day-old rats and treated in the same manner as for the dermal fibroblasts. Thereafter, 10 ng/ml TGFβ1 was added to the dermal fibroblasts, and 2 ng/ml TGFβ2 was added to the cardiac fibroblasts, followed by culturing the cells for 48 hours. At the same time as TGFβ was added, 10 μM of a test compound (compound 011), 10 μM of Pyr 2 (conventional inhibitor), or DMSO (solvent control) was also added. Separately, cultured cells to which TGFβ-free phosphate buffered saline (PBS) was added were also prepared. […] After blocking with 1% bovine serum albumin, α-SMA was detected using anti-α-SMA antibody (Sigma) as the primary antibody and anti-mouse IgG antibody (Molecular Probes) fused with Alexa 488 as the secondary antibody, and an image was acquired using a fluorescence microscope (Keyence) with a 20× objective lens. The average fluorescence brightness (fluorescence intensity/pixel) per cell area was calculated and analyzed using Image J software.

[2] = system: α-SMA expression induced by TGFβ1 in dermal fibroblasts; experiment: Fibrosis inhibition evaluation 2: immunofluorescent staining of α-SMA in dermal fibroblasts; type: cell-based, mice; conditions: 10 μM, TGFβ1 10 ng/ml, 48 hours, FIG. 7
Protocol: as §1

O=C(O)c1cnc(N2CCN(c3noc4cccc(C(F)(F)F)c34)CC2)c(Cl)c1 [Compound 011, 5-chloro-6-(4-(4-(trifluoromethyl)benzo[d]isoxazol-3-yl)piperazin-1-yl) nicotinic acid]
change in TRPC6 current evoked by carbachol (TRPC6 channel): significant decrease in the amount of current | expression of α-SMA induced by TGFβ (immunofluorescent staining) [1]: almost completely suppressed the expression of α-SMA | expression of α-SMA induced by TGFβ (immunofluorescent staining) [2]: almost completely suppressed the expression of α-SMA
